Read-outs that look alike come from different tables or passages of the source.
Biological target: T1, Recombinant human cathepsin A (Homo sapiens, UniProt P10619)
T1 construct: Recombinant human cathepsin A (residues 29-480, with a C-terminal 10-His tag); 10-His (C); purchased R&D Systems 1049-SE
T1 sequence (P10619 29-312 limits assumed): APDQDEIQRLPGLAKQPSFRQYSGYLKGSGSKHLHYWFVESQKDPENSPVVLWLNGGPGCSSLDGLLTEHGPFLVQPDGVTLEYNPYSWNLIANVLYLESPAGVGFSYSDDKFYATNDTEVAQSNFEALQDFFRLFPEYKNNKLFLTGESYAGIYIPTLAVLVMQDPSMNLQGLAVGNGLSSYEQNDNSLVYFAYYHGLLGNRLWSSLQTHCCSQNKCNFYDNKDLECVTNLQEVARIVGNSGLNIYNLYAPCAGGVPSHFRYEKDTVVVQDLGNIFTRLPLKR
T1 sequence (P10619 327-480 limits assumed): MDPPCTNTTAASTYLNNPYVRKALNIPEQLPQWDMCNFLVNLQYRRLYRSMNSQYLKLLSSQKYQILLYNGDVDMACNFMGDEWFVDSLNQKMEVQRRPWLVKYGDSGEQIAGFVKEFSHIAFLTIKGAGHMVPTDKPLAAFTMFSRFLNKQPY
Assay: Cathepsin A inhibitory activity
Assay type: biochemical
Procedure, shortened: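 Read-out was microfluidic separation of cleaved vs. uncleaved Bodipy FL-bradykinin (2 μM), giving turnover, % inhibition and IC50. Compound and 833 ng/ml enzyme met for 15 min RT in pH 5.5 MES/DTT before substrate (15 min RT). The 29-480 His-tagged human enzyme was first activated by cathepsin L, then E-64 (10 μM).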

[1] = read-out: Activity (2): Cathepsin A inhibitory activity (IC50 class)
[2] = recombinant human cathepsin A 833 ng/ml, Bodipy FL-labeled bradykinin 2 μM, pH 5.5, read-out: CATH-A IC50

## COc1ccc(-c2ccccc2)cc1C(CC(=O)O)NC(=O)c1cc(O)n(-c2ccccc2F)n1 (stereo not drawn) [Example 556, 3-{[1-(2-Fluoro-phenyl)-5-hydroxy-1H-pyrazole-3-carbonyl]-amino}-3-(4-methoxy-biphenyl-3-yl)-propionic acid]
[1]
  IC50: 1000 to 30000 nM
[2]
  IC50: 8650 nM

## O=C(O)CC(NC(=O)c1cc(O)n(-c2ccccc2Cl)n1)c1ccc(-n2cncn2)cc1 (stereo not drawn) [Example 557, 3-{[1-(2-Chloro-phenyl)-5-hydroxy-1H-pyrazole-3-carbonyl]-amino}-3-(4-[1,2,4]triazol-1-yl-phenyl)-propionic acid]
[1]
  IC50: 100 to 1000 nM
[2]
  IC50: 839 nM

## COc1cc(-c2ccccc2)ccc1C(CC(=O)O)NC(=O)c1cc(O)n(-c2ccccc2Cl)n1 (stereo not drawn) [Example 558, 3-{[1-(2-Chloro-phenyl)-5-hydroxy-1H-pyrazole-3-carbonyl]-amino}-3-(3-methoxy-biphenyl-4-yl)-propionic acid]
[1]
  IC50: 100 to 1000 nM
[2]
  IC50: 699 nM

## COc1ccc(F)c(C(CC(=O)O)NC(=O)c2cc(O)n(-c3ccccc3Cl)n2)c1 (stereo not drawn) [Example 559, 3-{[1-(2-Chloro-phenyl)-5-hydroxy-1H-pyrazole-3-carbonyl]-amino}-3-(2-fluoro-5-methoxy-phenyl)-propionic acid]
[1]
  IC50: 100 to 1000 nM
[2]
  IC50: 731 nM

## COc1ccc(C(F)(F)F)cc1C(CC(=O)O)NC(=O)c1cc(O)n(-c2ccccc2Cl)n1 (stereo not drawn) [Example 560, 3-{[1-(2-Chloro-phenyl)-5-hydroxy-1H-pyrazole-3-carbonyl]-amino}-3-(2-methoxy-5-trifluoromethyl-phenyl)-propionic acid]
[1]
  IC50: 1000 to 30000 nM
[2]
  IC50: 7620 nM

## Cc1ccc(C(CC(=O)O)NC(=O)c2cc(O)n(-c3ccccc3Cl)n2)c(F)c1 (stereo not drawn) [Example 561, 3-{[1-(2-Chloro-phenyl)-5-hydroxy-1H-pyrazole-3-carbonyl]-amino}-3-(2-fluoro-4-methyl-phenyl)-propionic acid]
[1]
  IC50: 100 to 1000 nM
[2]
  IC50: 266 nM

## COc1ccc(-c2ccccc2)cc1C(CC(=O)O)NC(=O)c1cc(O)n(-c2ccccc2Cl)n1 (stereo not drawn) [Example 562, 3-{[1-(2-Chloro-phenyl)-5-hydroxy-1H-pyrazole-3-carbonyl]-amino}-3-(4-methoxy-biphenyl-3-yl)-propionic acid]
[1]
  IC50: 1000 to 30000 nM
[2]
  IC50: 4490 nM

## O=C(O)CC(NC(=O)c1cc(O)n(-c2ccccc2)n1)c1ccc(-n2cncn2)cc1 (stereo not drawn) [Example 563, 3-[(5-Hydroxy-1-phenyl-1H-pyrazole-3-carbonyl)-amino]-3-(4-[1,2,4]triazol-1-yl-phenyl)-propionic acid]
[1]
  IC50: 1000 to 30000 nM
[2]
  IC50: 1740 nM

## Cc1ccc(C(CC(=O)O)NC(=O)c2cc(O)n(-c3ccccc3)n2)c(F)c1 (stereo not drawn) [Example 564, 3-(2-Fluoro-4-methyl-phenyl)-3-[(5-hydroxy-1-phenyl-1H-pyrazole-3-carbonyl)-amino]-propionic acid]
[1]
  IC50: 100 to 1000 nM
[2]
  IC50: 459 nM

## O=C(O)CC(NC(=O)c1cc(O)n(-c2ccccc2)n1)c1ccc(N2CCCC2)cc1 (stereo not drawn) [Example 565, 3-[(5-Hydroxy-1-phenyl-1H-pyrazole-3-carbonyl)-amino]-3-(4-pyrrolidin-1-yl-phenyl)-propionic acid]
[1]
  IC50: 1000 to 30000 nM
[2]
  IC50: 5020 nM

## O=C(O)CC(NC(=O)c1cc(O)n(-c2ccccc2F)n1)c1ccc(N2CCCC2)cc1 (stereo not drawn) [Example 566, 3-{[1-(2-Fluoro-phenyl)-5-hydroxy-1H-pyrazole-3-carbonyl]-amino}-3-(4-pyrrolidin-1-yl-phenyl)-propionic acid]
[1]
  IC50: 1000 to 30000 nM
[2]
  IC50: 2990 nM

## COc1ccc(C(CC(=O)O)NC(=O)c2cc(O)n(-c3ccccc3Cl)n2)c(C(F)(F)F)c1 (stereo not drawn) [Example 567, 3-{[1-(2-Chloro-phenyl)-5-hydroxy-1H-pyrazole-3-carbonyl]-amino}-3-(4-methoxy-2-trifluoromethyl-phenyl)-propionic acid]
[1]
  IC50: 1000 to 30000 nM
[2]
  IC50: 1060 nM

## O=C(O)CC(NC(=O)c1cc(O)n(-c2ccccc2Cl)n1)c1ccc(N2CCCC2)cc1 (stereo not drawn) [Example 568, 3-{[1-(2-Chloro-phenyl)-5-hydroxy-1H-pyrazole-3-carbonyl]-amino}-3-(4-pyrrolidin-1-yl-phenyl)-propionic acid]
[1]
  IC50: 1000 to 30000 nM
[2]
  IC50: 2350 nM

## O=C(O)CC(NC(=O)c1cc(O)n(-c2ccccc2C(F)(F)F)n1)c1ccc(-c2ccc(F)cc2)cc1 (stereo not drawn) [Example 569]
[1]
  IC50: 100 to 1000 nM

## Cc1ccccc1[C@H](CC(=O)O)NC(=O)c1cc(O)n(C2CCCC2)n1 [Example 572]
[1]
  IC50: 100 to 1000 nM

## Cc1ccccc1[C@H](CC(=O)O)NC(=O)c1cc(O)n(C2CCCCC2)n1 [Example 573]
[1]
  IC50: < 100 nM

## O=C(O)CC(NC(=O)c1cc(O)n(C2CCCC2)n1)c1ccc(-c2ccc(F)cc2)cc1 (stereo not drawn) [Example 574]
[1]
  IC50: 1000 to 30000 nM

## O=C(O)CC(NC(=O)c1cc(O)n(C2CCCCC2)n1)c1ccc(-c2ccc(F)cc2)cc1 (stereo not drawn) [Example 575]
[1]
  IC50: 1000 to 30000 nM

## O=C(O)CC(NC(=O)c1cc(O)n(-c2ccccc2F)n1)c1ccc(-c2ccc(C(F)(F)F)cc2)cc1 (stereo not drawn) [Example 576]
[1]
  IC50: 100 to 1000 nM

## O=C(O)CC(NC(=O)c1cc(O)n(-c2ccccc2)n1)c1ccc(-n2cccn2)cc1 (stereo not drawn) [Example 578]
[1]
  IC50: 1000 to 30000 nM

## O=C(O)CC(NC(=O)c1cc(O)n(-c2ccccc2)n1)c1ccc(-c2ccc(C(F)(F)F)cc2)cc1 (stereo not drawn) [Example 579]
[1]
  IC50: 1000 to 30000 nM

## O=C(O)CC(NC(=O)c1cc(O)n(-c2ccccc2Cl)n1)c1ccc(-n2cccn2)cc1 (stereo not drawn) [Example 580]
[1]
  IC50: 100 to 1000 nM

## O=C(O)CC(NC(=O)c1cc(O)n(-c2ccccc2Cl)n1)c1ccc(-c2ccc(C(F)(F)F)cc2)cc1 (stereo not drawn) [Example 581]
[1]
  IC50: 1000 to 30000 nM

## O=C(O)CC(NC(=O)c1cc(O)n(-c2ccccc2F)n1)c1ccc(-n2cccn2)cc1 (stereo not drawn) [Example 582]
[1]
  IC50: 100 to 1000 nM

## O=C(O)CC(NC(=O)c1cc(O)n(-c2ccccc2)n1)c1ccc(-c2ccccc2F)cc1 (stereo not drawn) [Example 583]
[1]
  IC50: 1000 to 30000 nM

## O=C(O)CC(NC(=O)c1cc(O)n(-c2ccccc2F)n1)c1ccc(-c2ccccc2F)cc1 (stereo not drawn) [Example 584]
[1]
  IC50: 100 to 1000 nM

## O=C(O)CC(NC(=O)c1cc(O)n(-c2ccccc2Cl)n1)c1ccc(-c2ccccc2F)cc1 (stereo not drawn) [Example 585, 3-{[1-(2-Chloro-phenyl)-5-hydroxy-1H-pyrazole-3-carbonyl]-amino}-3-(2′-fluoro-biphenyl-4-yl)-propionic acid]
[1]
  IC50: 100 to 1000 nM

## Cc1ccccc1[C@H](CC(=O)O)NC(=O)c1cc(O)n(-c2cc(F)cc(F)c2)n1 [Example 586]
[1]
  IC50: 100 to 1000 nM

## O=C(O)CC(NC(=O)c1cc(O)n(-c2cc(F)cc(F)c2)n1)c1ccc(-c2ccc(F)cc2)cc1 (stereo not drawn) [Example 587]
[1]
  IC50: 1000 to 30000 nM

## Cc1ccccc1[C@H](CC(=O)O)NC(=O)c1cc(O)n(-c2c(F)cccc2F)n1 [Example 588]
[1]
  IC50: 100 to 1000 nM

## Cc1ccccc1[C@H](CC(=O)O)NC(=O)c1cc(O)n(-c2cccc(Cl)c2F)n1 [Example 589]
[1]
  IC50: 100 to 1000 nM

## O=C(O)CC(NC(=O)c1cc(O)n(-c2cccc(Cl)c2F)n1)c1ccc(-c2ccc(F)cc2)cc1 (stereo not drawn) [Example 590]
[1]
  IC50: 100 to 1000 nM

## O=C(O)CC(NC(=O)c1cc(O)n(-c2ccccc2Cl)n1)c1ccc(-c2ccccc2Cl)cc1 (stereo not drawn) [Example 591]
[1]
  IC50: 100 to 1000 nM

## Cc1ccccc1C(CC(=O)O)NC(=O)c1nn(-c2ccccc2F)c(O)c1C (stereo not drawn) [Example 592]
[1]
  IC50: 100 to 1000 nM

## COc1c(Cl)c(C(=O)N[C@@H](CC(=O)O)c2ccccc2C)nn1-c1ccccc1F [Example 593]
[1]
  IC50: 100 to 1000 nM

## COc1c(Br)c(C(=O)N[C@@H](CC(=O)O)c2ccccc2C)nn1-c1ccccc1F [Example 594]
[1]
  IC50: < 100 nM

## COc1c(F)c(C(=O)N[C@@H](CC(=O)O)c2ccccc2C)nn1-c1ccccc1F [Example 595]
[1]
  IC50: < 100 nM

## COc1cc(C(=O)N[C@@H](CC(=O)O)c2cccc(Cl)c2Cl)nn1-c1ccccc1 [Example 596]
[1]
  IC50: < 100 nM

## COc1cc(C(=O)NC(CC(=O)O)c2ccc(-c3ccccn3)cc2)nn1-c1ccccc1 (stereo not drawn) [Example 597, 3-[(5-Methoxy-1-phenyl-1H-pyrazole-3-carbonyl)-amino]-3-(4-pyridin-2-yl-phenyl)-propionic acid]
[1]
  IC50: 100 to 1000 nM

## COc1cc(C(=O)NC(CC(=O)O)c2ccc(-c3ccccn3)cc2)nn1-c1ccccc1F (stereo not drawn) [Example 598]
[1]
  IC50: < 100 nM

## Cc1ccccc1[C@H](CC(=O)O)NC(=O)c1cc(O)n(-c2cc(F)ccc2F)n1 [Example 599]
[1]
  IC50: < 100 nM

## CS(=O)(=O)c1ccc(C(CC(=O)O)NC(=O)c2cc(O)n(-c3ccccc3)n2)cc1 (stereo not drawn) [Example 600]
[1]
  IC50: 1000 to 30000 nM

## Cc1ccccc1[C@H](CC(=O)O)NC(=O)c1cc(O)n(-c2cccc(S(N)(=O)=O)c2)n1 [Example 601]
[1]
  IC50: 100 to 1000 nM

## Cc1ccccc1[C@H](CC(=O)O)NC(=O)c1cc(O)n(-c2ccc(S(N)(=O)=O)cc2)n1 [Example 602]
[1]
  IC50: 1000 to 30000 nM

## CS(=O)(=O)c1ccc(C(CC(=O)O)NC(=O)c2cc(O)n(-c3ccccc3F)n2)cc1 (stereo not drawn) [Example 603, 3-{[1-(2-Fluoro-phenyl)-5-hydroxy-1H-pyrazole-3-carbonyl]-amino}-3-(4-methanesulfonyl-phenyl)-propionic acid]
[1]
  IC50: 1000 to 30000 nM

## COc1c(C)c(C(=O)NC(CC(=O)O)c2ccccc2C)nn1-c1ccccc1F (stereo not drawn) [Example 605]
[1]
  IC50: 1000 to 30000 nM

## NS(=O)(=O)c1cccc(-n2nc(C(=O)NC(CC(=O)O)c3ccc(-c4ccc(F)cc4)cc3)cc2O)c1 (stereo not drawn) [Example 606]
[1]
  IC50: 100 to 1000 nM

Reference: US8664257B2, “Oxygen-substituted 3-heteroaroylamino-propionic acid derivatives and their use as pharmaceuticals” (Sanofi, priority 2010, dated 2014)
